Measurements published in ChEMBL document CHEMBL1201862, “PubChem BioAssay data set” (2004).
The source made the active and inactive calls.

Experiments:
Cytochrome P450 2C19 = Cytochrome P450 2C19 (Homo sapiens, UniProt P33261); experiment: Cytochrome panel assay with activity outcomes. Panel member name: p450-cyp2c19 Compounds with AC50 equal or less than 10 uM are considered active; assay type: functional; conditions: read-out: AC50
[1] = target: T1, Heat shock factor protein 1 (Mus musculus, UniProt P38532); experiment: decrease of HSF1-responsive luciferase luminescence – cell-based, NIH3T3, dose retest, confirmation (AID 2382); assay type: functional;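 further: NIH3T3 fibroblasts with HSF1-driven luciferase reporter stressed by proteasome inhibitor MG132; luminescence from HSF1-driven luciferase expression after 8 hours of MG132 stress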
T1 sequence (P38532 whole entry): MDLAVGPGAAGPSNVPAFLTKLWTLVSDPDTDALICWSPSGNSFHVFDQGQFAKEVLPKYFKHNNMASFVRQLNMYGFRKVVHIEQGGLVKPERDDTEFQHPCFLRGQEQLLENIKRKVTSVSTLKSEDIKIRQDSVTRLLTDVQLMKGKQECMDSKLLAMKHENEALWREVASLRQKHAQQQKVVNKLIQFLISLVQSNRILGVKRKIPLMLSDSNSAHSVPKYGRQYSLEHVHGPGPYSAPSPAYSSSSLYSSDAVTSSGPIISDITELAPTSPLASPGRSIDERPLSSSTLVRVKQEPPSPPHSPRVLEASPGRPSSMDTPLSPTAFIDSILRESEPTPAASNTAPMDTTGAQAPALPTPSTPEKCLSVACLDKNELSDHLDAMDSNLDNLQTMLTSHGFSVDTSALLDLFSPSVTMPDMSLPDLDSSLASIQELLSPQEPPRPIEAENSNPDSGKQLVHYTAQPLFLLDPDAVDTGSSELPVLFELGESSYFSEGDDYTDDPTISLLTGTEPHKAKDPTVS

Cytochrome P450 3A4 [2] = target: T2, Cytochrome P450 3A4 (Homo sapiens, UniProt P08684)
T2 sequence (P08684 whole entry): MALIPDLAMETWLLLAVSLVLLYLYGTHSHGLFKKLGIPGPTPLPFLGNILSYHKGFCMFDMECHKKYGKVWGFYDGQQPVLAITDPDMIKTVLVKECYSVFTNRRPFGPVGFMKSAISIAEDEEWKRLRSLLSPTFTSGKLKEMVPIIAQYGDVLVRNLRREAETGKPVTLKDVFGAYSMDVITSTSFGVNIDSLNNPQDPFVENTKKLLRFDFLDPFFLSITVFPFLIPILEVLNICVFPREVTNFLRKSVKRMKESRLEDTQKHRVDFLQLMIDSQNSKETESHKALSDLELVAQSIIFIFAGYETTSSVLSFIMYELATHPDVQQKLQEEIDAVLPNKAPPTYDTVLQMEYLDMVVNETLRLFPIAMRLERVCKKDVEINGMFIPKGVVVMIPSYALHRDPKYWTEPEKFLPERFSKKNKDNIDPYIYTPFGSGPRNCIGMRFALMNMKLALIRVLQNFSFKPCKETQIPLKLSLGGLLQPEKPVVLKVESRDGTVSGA

Cytochrome P450 2C9 = Cytochrome P450 2C9 (Homo sapiens, UniProt P11712)
Cytochrome P450 2C9, sequence (P11712 whole entry): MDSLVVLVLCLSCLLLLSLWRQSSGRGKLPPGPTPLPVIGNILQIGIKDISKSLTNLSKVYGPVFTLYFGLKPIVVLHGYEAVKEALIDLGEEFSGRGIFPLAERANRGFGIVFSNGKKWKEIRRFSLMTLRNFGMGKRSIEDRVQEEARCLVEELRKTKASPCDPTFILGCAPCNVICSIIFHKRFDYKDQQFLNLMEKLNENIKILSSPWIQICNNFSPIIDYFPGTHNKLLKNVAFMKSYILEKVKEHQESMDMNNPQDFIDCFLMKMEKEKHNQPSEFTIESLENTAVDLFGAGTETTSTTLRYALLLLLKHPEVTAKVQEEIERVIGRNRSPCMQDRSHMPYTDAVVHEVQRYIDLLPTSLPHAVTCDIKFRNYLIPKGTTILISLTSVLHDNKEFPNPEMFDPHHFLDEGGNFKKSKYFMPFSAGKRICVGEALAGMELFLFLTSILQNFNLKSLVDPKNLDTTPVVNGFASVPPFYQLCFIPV

Cytochrome P450 2D6 = Cytochrome P450 2D6 (Homo sapiens, UniProt P10635);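 further: CYP2D6 member of a cytochrome P450 panel assay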
Cytochrome P450 2D6, sequence (P10635 whole entry): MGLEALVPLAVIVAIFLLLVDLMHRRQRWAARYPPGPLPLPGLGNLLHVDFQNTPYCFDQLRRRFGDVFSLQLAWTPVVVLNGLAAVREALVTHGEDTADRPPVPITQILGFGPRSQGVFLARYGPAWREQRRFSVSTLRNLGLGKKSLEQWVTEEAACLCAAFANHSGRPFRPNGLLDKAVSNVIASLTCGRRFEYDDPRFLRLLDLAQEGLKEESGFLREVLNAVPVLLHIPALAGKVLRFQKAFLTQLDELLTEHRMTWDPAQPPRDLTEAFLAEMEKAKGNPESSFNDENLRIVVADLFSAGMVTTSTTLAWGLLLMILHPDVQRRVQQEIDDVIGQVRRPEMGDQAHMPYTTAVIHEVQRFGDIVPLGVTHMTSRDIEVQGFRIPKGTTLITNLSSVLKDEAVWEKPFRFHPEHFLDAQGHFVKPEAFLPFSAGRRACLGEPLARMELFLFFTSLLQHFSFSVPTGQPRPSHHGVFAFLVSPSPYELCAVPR

[3] = Vero E6 cell cytotoxicity, dose response, cytotoxicity control for non-replicating M. tuberculosis project, secondary assay (AID 492998); assay type: functional, VeroE6; conditions: Vero C1008
[4] = Trypanosoma cruzi growth suppression in host cells – NIH3T3 host cells, beta-gal luminescence, confirmation (AID 2044); assay type: functional, cell-based;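 further: intracellular parasites grown in NIH/3T3 mouse fibroblasts as host cells; luminescent beta-galactosidase reporter signal from transgenic T. cruzi replicating inside host cells; inhibitors lower the luminescence signal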
cells [5] = assay type: functional, cell-based
[6] = THP-1 cell cytotoxicity, dose response, cytotoxicity control for non-replicating M. tuberculosis project (AID 489025); assay type: functional
cells [7] = assay type: functional
[8] = microbe, parasite or virus in culture; assay type: functional; conditions: Mycobacterium tuberculosis
cells [9] = assay type: functional, cell-based; remark: listed apart in the source
[10] = NIH3T3 cell viability loss – ATP luminescence, mouse fibroblasts, counter-screen, dose response (AID 2010); assay type: functional, cell-based;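 further: cells exposed to compound for about 90 hours before reading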
INS1 = experiment: INS-1E survival protection against cytokine death – cell-based, luminescence, retest, dose response (AID 449756); assay type: functional; conditions: Rattus norvegicus;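 further: cell death triggered by IL-1 beta plus TNF-alpha plus IFN-gamma mixture; protective hits raise ATP signal compared with cytokine alone wells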
Escherichia coli = experiment: microbe, parasite or virus in culture
[11] = NIH-3T3 fibroblast cytotoxicity, dose response, cytotoxicity control, cell-based, fluorescence, Alamar Blue, secondary assay (AID 2327); assay type: functional;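 further: NIH-3T3 mouse fibroblasts cultured with fluconazole at 8 µg/mL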
[12] = Luminescence Cell-Based Dose Response HTS to Identify Inhibitors of 5'UTR Stem-Loop Driven Prion Protein mRNA Translation in H4 Neuroglioblastoma Cells. [Related pubchem assays: 1827 (Project Summary), 1813 (Primary HTS)]; assay type: functional
[13] = target: T3, DNA repair protein RAD52 homolog (Homo sapiens, UniProt P43351); assay type: functional, biochemical
T3 sequence (P43351 whole entry): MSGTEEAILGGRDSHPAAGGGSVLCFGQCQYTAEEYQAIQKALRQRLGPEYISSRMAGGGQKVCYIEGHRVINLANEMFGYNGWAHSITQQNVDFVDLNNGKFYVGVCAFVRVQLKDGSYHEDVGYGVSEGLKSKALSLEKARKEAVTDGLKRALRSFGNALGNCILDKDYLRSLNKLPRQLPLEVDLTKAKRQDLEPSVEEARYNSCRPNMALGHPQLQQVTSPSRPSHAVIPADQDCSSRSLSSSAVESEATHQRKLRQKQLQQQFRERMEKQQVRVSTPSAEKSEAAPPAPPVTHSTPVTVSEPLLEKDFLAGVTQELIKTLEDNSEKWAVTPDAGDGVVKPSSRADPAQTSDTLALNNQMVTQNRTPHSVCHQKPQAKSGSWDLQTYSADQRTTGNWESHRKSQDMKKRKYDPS

[14] = fluconazole-exposed Candida albicans growth modulators – fluorescence, retest, confirmation (AID 2467); assay type: functional, cell-based
[15] = alpha-synuclein stem-loop luciferase translation blockers – H4 neuroglioma cells, luminescence, confirmation (AID 1988); assay type: functional, cell-based
[16] = luciferase reporter signal suppression in cells – H4 neuroglioma cells, luminescence, dose response (AID 1990); assay type: functional, cell-based
[17] = viability loss in THP-1 monocytes – THP-1 cells, cytotoxicity control for Vif-APOBEC3G degradation inhibitor project, dose response (AID 1117359); assay type: functional; conditions: THP-1
Cytochrome P450 3A4 [18] = target: T2, Cytochrome P450 3A4; conditions: Potency
[19] = HEK-293T viability loss after treatment – luminescence, T-cell screen hits, cytotoxicity control for TCR NF-kB inhibitor project, dose response (AID 489026); assay type: functional, cell-based;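 further: cells exposed to compound about 14 hours before the viability readout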
[20] = reduction of Shn3 3'UTR-driven luciferase in osteoblasts – cell-based, Clone20 osteoblasts, firefly luciferase, cherry-picked, dose response (AID 624132); assay type: functional;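 further: firefly luciferase luminescence from reporter carrying the Shn3 3'UTR in osteoblasts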
[21] = loss of viability in HepG2 cells – cell-based, CellTiter-Glo, cherry-picked, cytotoxicity control for Shn3 inhibitor project, dose response (AID 624134); assay type: functional
[22] = non-specific 3'UTR reporter inhibition in Clone20-Shn3RL – cell-based, Renilla luciferase, cherry-picked, counter-screen for Shn3 inhibitor project, dose response (AID 624133); assay type: functional
Streptococcus = experiment: GAS UMAA2166 growth inhibition – luminescence, BacTiterGlo, counter-screen for streptokinase expression inhibitor project, dose response (AID 1915); assay type: functional, organism-based;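 further: potency for reduction of bacterial viability or growth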
[23] = tested on: Streptococcus sp. 'group A'; experiment: Streptococcus pyogenes SK(-)GAS viability under kanamycin – luminescence, BacTiterGlo, confirmation, counter-screen for streptokinase expression inhibitor project, dose response (AID 1900); assay type: functional, organism-based
Streptokinase A = target: T4, Streptokinase A (Streptococcus pyogenes serotype M1, UniProt P10520); experiment: viability-normalized secreted streptokinase activity reduction – plasminogen activation absorbance, OD405, dose response (AID 1914); assay type: functional, Streptococcus pyogenes M1 GAS;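 further: secreted streptokinase activity via plasminogen activation per viability signal from cell pellet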
T4 sequence (P10520 whole entry): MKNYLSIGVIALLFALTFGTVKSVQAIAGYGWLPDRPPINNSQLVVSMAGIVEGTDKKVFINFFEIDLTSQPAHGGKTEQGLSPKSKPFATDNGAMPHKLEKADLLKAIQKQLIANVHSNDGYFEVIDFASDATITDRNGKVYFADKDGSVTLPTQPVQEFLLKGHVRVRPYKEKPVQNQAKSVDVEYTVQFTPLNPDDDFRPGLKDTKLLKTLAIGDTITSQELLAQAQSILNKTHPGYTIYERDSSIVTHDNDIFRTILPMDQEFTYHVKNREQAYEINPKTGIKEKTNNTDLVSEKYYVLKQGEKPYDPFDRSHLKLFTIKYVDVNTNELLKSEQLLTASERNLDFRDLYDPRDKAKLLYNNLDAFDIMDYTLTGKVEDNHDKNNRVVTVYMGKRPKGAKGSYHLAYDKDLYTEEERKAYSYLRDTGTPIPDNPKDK

P388/ADR = experiment: cells; assay type: functional; conditions: Mus musculus
P388 = experiment: cells; assay type: functional; conditions: Mus musculus
SN12K1 = experiment: cells; assay type: functional; conditions: Homo sapiens
[24] = Luminescence Cell-Based Dose Retest to Confirm Inhibitors of Cancer Stem Cells. [Related pubchem assays (depositor defined):AID2717, AID2721]; assay type: functional; conditions: Homo sapiens
[25] = DRD fibroblast viability loss – cell-based, non-viral oncogenic, luminescence, dose response (AID 1934); assay type: functional; conditions: Homo sapiens
BJ [26] = experiment: BJ-TERT-LT-ST fibroblast viability loss – cell-based, RAS-independent, luminescence, dose response (AID 1935); assay type: functional; conditions: Homo sapiens;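 further: BJ fibroblasts immortalized with TERT plus LT and ST oncogenes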
BJ [27] = experiment: cells; assay type: functional, cell-based; conditions: Homo sapiens
BJ [28] = experiment: BJ-TERT fibroblast viability loss – cell-based, RAS-independent, luminescence, dose response (AID 1933); assay type: functional; conditions: Homo sapiens

Cytochrome P450 2C19, sequence (P33261 whole entry): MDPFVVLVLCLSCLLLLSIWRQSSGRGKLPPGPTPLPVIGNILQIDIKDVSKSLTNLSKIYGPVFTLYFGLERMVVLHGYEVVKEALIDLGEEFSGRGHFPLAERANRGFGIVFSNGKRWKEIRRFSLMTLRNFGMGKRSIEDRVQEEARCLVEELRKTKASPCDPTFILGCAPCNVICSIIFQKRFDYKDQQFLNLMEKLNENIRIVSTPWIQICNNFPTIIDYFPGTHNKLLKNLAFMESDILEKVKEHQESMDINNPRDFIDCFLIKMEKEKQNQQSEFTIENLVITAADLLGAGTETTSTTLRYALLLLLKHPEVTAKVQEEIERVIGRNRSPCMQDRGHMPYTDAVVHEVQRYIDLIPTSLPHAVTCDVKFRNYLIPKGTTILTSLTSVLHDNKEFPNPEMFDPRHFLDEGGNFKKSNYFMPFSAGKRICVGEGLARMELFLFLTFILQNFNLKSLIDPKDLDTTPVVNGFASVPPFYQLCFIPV

## CCC(C)(NC(=O)c1ccccn1)C(=O)NC1CCCCC1 (configuration not stated)
Cytochrome P450 2C19
  AC50: 10 µM (inconclusive)
[1]
  EC50: > 195 µM (not active)
Cytochrome P450 3A4 [2]
  AC50: inconclusive
Cytochrome P450 2C9
  AC50: 17.8 µM (inconclusive)

## O=C(c1cccc(F)c1)N1CCC2(CC1)CCN(c1ccc(-c3ccccc3)cc1)CC2
Cytochrome P450 3A4 [2]
  AC50: inconclusive
Cytochrome P450 2D6
  AC50: 10 µM (inconclusive)

## c1ccc(CSc2ccc(-c3ccccn3)nn2)cc1
[3]
  CC50: 12 µM (active)
[4]
  EC50: 1.99 µM (active)
Cells [5]
  EC50: 28.4 µM (active)
[6]
  CC50: 14.2 µM (active)
Cells [7]
  IC50: 15.1 µM (active)
[8]
  CC50: 36.9 µM (active)
Cells [9]
  EC50: 85.6 µM (active)
[10]
  EC50: > 30 µM (not active)
INS1
  AC50: 5.5 µM (active)

## O=C(c1ccco1)N1CCC2(CC1)CN(c1ccccc1)C2
Cytochrome P450 3A4 [2]
  AC50: inconclusive
Cytochrome P450 2C9
  AC50: 25.1 µM (inconclusive)

## COc1ccc(CCN2C(=O)CC(NNC(=O)c3ccc(F)cc3)C2=O)cc1OC (configuration not stated)
Escherichia coli
  AC50: 20.9 µM (active)

## Cn1c(=O)c(-c2cc(F)cc(F)c2)nc2cnc(Oc3ccccc3)nc21
Cytochrome P450 3A4 [2]
  AC50: inconclusive
Cytochrome P450 2C9
  AC50: 20 µM (inconclusive)

## O=C(CCNc1ccc(F)cc1)c1ccco1
[3]
  CC50: 17.9 µM (active)
[6]
  CC50: > 40 µM (active)
Cells [7]
  IC50: 13.6 µM (active)

## COc1ccc(-c2nc(CN3CCN(c4cc(C)nc(C)c4)CC3)c(C)o2)c2ccccc12
[11]
  EC50: > 160 µM (inactive)
[12]
  EC50: > 120 µM (not active)
[13]
  AC50: 7 µM (active)
[14]
  EC50: 3.22 µM (active)
[15]
  EC50: 10.7 µM (active)
[8]
  CC50: 11.5 µM (active)
[16]
  EC50: 20.9 µM (active)

## CCOc1ccc(C(=O)CCN2CCCCCC2)cc1
[3]
  CC50: > 20 µM (active)
[6]
  CC50: > 40 µM (active)
Cells [7]
  IC50: 17.2 µM (active)
[8]
  CC50: > 40 µM (active)

## COc1ccccc1CNCC(=O)Nc1ccc(N2CCOCC2)cc1
[17]
  CC50: 30.7 µM (active)

## CCCn1c(C)nc2c(NC3CCN(Cc4ccccc4)C3)nc(C)nc21 (configuration not stated)
Cytochrome P450 3A4 [18]
  AC50: 15.8 µM (inconclusive)

## Clc1ccc(CSc2nncn2-c2ccc3c(c2)OCCO3)cc1
[12]
  EC50: > 120 µM (not active)
[15]
  EC50: > 120 µM (not active)
[19]
  IC50: > 80 µM (inactive)
[16]
  EC50: > 120 µM (not active)

## O=C(CN1C(=O)NC2(CCCCC2)C1=O)NCc1cccs1
Escherichia coli
  AC50: 34.2 µM (active)

## O=C(NNc1ccnc2cc(Cl)ccc12)C1CCCCC1
[20]
  AC50: < 0.26 µM (active)
[19]
  IC50: > 80 µM (inactive)
[21]
  AC50: 0.409 µM (active)
[22]
  AC50: 1.39 µM (active)
INS1
  AC50: 1.42 µM (active)

## Cc1nn(-c2ccccc2)c2sc(C(=O)N3CCc4ccccc4C3)cc12
Streptococcus
  EC50: 14.6 µM (active)
[17]
  CC50: > 40 µM (active)
[23]
  EC50: 4.55 µM (active)
Streptokinase A
  EC50: > 150 µM (not active)

## CC(=O)c1cc(CN2CCN(C3CCCCC3)C(CCO)C2)cs1 (configuration not stated)
Escherichia coli
  AC50: 27.7 µM (active)

## COc1ccc(O)c(C#N)c1C#N.COc1ccc(OC)c(C#N)c1C#N
P388/ADR
  GI50: > 100 µM (inactive)
P388
  GI50: > 100 µM (inactive)
SN12K1
  GI50: > 100 µM (inactive)

## Brc1ccc2[nH]c3c(C4=NCCC4)nccc3c2c1
P388/ADR
  GI50: 9.57 µM (inactive)
P388
  GI50: 9.51 µM (inactive)
SN12K1
  GI50: 9.98 µM (inactive)

## C#CCN1CCN(C(=S)N/N=C(\C)c2ccccn2)CC1
P388/ADR
  GI50: < 0.01 µM (active)
P388
  GI50: < 0.01 µM (active)
SN12K1
  GI50: 0.01 µM (active)

## Cc1ccsc1/C=N/NC(=O)c1cc(-c2ccncc2)nc2ccccc12
[24]
  AC50: 0.168 µM (active)
[25]
  EC50: 2.94 µM (active)
BJ [26]
  EC50: 4.22 µM (inconclusive)
[19]
  IC50: 47.1 µM (inactive)
BJ [27]
  EC50: 2.88 µM (active)
BJ [28]
  EC50: 2.93 µM (inconclusive)

## Nc1ccc(Cl)cc1N
Cytochrome P450 3A4 [18]
  AC50: 7.94 µM (inconclusive)

## CCCCS(=N)(=O)CCC(N)C(=O)O (configuration not stated) [BUTHIONINE SULFOXIMINE]
Cytochrome P450 3A4 [18]
  AC50: 20 µM (inconclusive)

## CC(=O)OC1CCC23CC1(C)CCC2C(C)(C)CC3OC(C)=O (configuration not stated) [CLOVANEDIOL DIACETATE]
Cytochrome P450 3A4 [18]
  AC50: 15.8 µM (inconclusive)

## CCCCC/C=C\C/C=C\CCCCCCCC(=O)O [LINOLEIC ACID]
Cytochrome P450 3A4 [18]
  AC50: 31.6 µM (inconclusive)

## Clc1cccc(C(Cl)(Cl)Cl)n1 [NITRAPYRIN]
Cytochrome P450 3A4 [18]
  AC50: 12.6 µM (inconclusive)

## C[C@@H]1CN(c2c(F)c(F)c3c(=O)c(C(=O)O)cn(C4CC4)c3c2F)C[C@H](C)N1 [ORBIFLOXACIN]
Escherichia coli
  AC50: 0.657 µM (active)
